PMC12147209 (2025)

Experiments:
[1] = tested on: 5′-AA-3′ (DNA, single strand, 5'-phosphate (discussed as a 5' phosphate group in the modelled structure)) AA; experiment: Raman spectroscopy of dried mixture (532 nm); conditions: no added salt stated; water, dried residue; spermine and dinucleotide at 2:1 molar excess, incubated overnight
[2] = tested on: 5′-AA-3′ (DNA, single strand, 5'-phosphate (discussed as a 5' phosphate group in the modelled structure)) AA; experiment: SERS adsorption isotherm, Hill-Langmuir fit; conditions: no added salt stated; immobilised compound, apparent; dinucleotide adsorption on spermine-capped gold-silver nanostars; 20 °C; spermine 6.7×10^-5 M; Hill n 1.5

binding [1]: yes
K d [2]: (6.2 ± 0.7) 10^–7 M
Structure (SMILES): NCCCNCCCCNCCCN
